Reference: article PMC5372522, “Bioavailability Comparison of Nine Bioselenocompounds In Vitro and In Vivo” (International Journal of Molecular Sciences, 2017)

Columns and labels:
[1] = design: method as in PMID 6076213; conditions: selenyl group versus sulfhydryl group; cited from earlier work
Caco-2 cells [2] = test: Cell viability assay (CellTiter 96 Aqueous One) in Caco-2 cells; conditions: 6 h exposure; for dose at or above which cell viability was significantly reduced: p < 0.05
Method: (§1) Caco-2 cells were used in the in vitro permeability assay in the next experiment, and the cytotoxicity of bioselenocompounds was assayed 6 h after exposure to evaluate the harmful effects of bioselenocompounds on the cells. The cytotoxicity and/or proliferative effects of bioselenocompounds on HepG2 cells were analyzed 24 and 48 h after exposure.
(§2) A human colon carcinoma cell line (Caco-2) and a human hepatocyte carcinoma cell line (HepG2) were obtained from Riken BioResource Center (Wako, Japan). The composition of the passaging medium for Caco-2 or HepG2 was Eagle’s Minimum Essential Medium (MEM) with 20% FBS, 1% non-essential amino acid (NEAA), and 1% penicillin-streptomycin, or Dulbecco’s Modified Eagle’s Medium (DMEM) with 10% FBS and 1% penicillin-streptomycin, respectively. Caco-2 cells were seeded on a 96-well plate at 5500 cells/well and incubation was carried out for 2 days. […] Cell viability was determined by the CellTiter 96® Aqueous One Solution Cell Proliferation Assay (Promega, Madison, WI, USA) based on mitochondrial respiratory activity. HepG2 cells were seeded on a 96-well plate at 5000 cells/well and incubation was carried out for 1 day. Then, the cells were exposed to a Se compound, and cell viability was determined by using the same protocol as that mentioned above.

HepG2 cells = test: Cell viability / proliferation assay (CellTiter 96 Aqueous One) in HepG2 cells; conditions: for effect on cell proliferation: 24 h exposure; for dose at which cytotoxicity / reduced cell viability was seen / effect on cell viability / proliferation: 48 h exposure; for dose from which toxicity was dose-dependent: 24 and 48 h exposure
Method: as §1, §2

Caco-2 cells [3] = test: In vitro permeability assay using Caco-2 cell monolayers; assay type: in vitro ADME, human; conditions: for permeability in the presence of Met: with 10 mM Met versus without
Method: The bioselenocompounds were evaluated and compared in accordance with the standard protocol of the in vitro permeability assay using Caco-2 cells.
Figure 3 Permeability from the apical side to the basolateral side of Caco-2 cells. The permeability of the nine bioselenocompounds was compared (a). A 500 μL aliquot of fresh medium containing 1 μg Se/mL of each bioselenocompound was poured into the insert and the medium in the lower chamber was collected after 90 min. Values and bars are means ± SD for 3 wells. Statistical analysis was performed by the Tukey test. […] The effects of Met on the permeability of SeMet and MeSeCys were evaluated (b). Hatched and solid bars represent with and without 10 mM Met, respectively. Points and bars are means ± SD for 3 wells. Statistical analysis include the one-way analysis of variance followed by the Student’s t-test. The level of significance was set at p < 0.05, and is indicated by an asterisk (*).
Confluent Caco-2 cells at the cell density of around 20,000 cells/cm^2 were harvested by trypsinization and suspended in basal medium (Corning, Corning, NY, USA) containing MITO+ Serum Extender (Corning) at the cell density of 4 × 10^5 cells/mL. A 0.5 mL aliquot of the cell suspension was seeded on the inserts of a Falcon 24-Multiwell Insert System (Corning). The inserts were transferred onto a 24-well plate that contained 1 mL of basal medium, and incubation was carried out for 24 h. Then, the basal medium was carefully removed from the wells and the inserts, and 1.0 and 0.5 mL aliquots of the differentiation medium (Entero-STIM) containing MITO+ Serum Extender (Corning) were added to the wells and the inserts, respectively. The plate was incubated for another 3 days to induce the formation of a monolayer of differentiated Caco-2 cells. The medium was carefully removed from the inserts and the inserts were washed with transport buffer (HBSS + 10 mM HEPES, pH 7.4). Then, a 350 μL aliquot of each Se compound solution in transport buffer or this solution with 10 mM L-methionine (Wako) was added to the insert chamber. These inserts were transferred onto a plate and a 50 μL aliquot was withdrawn from the chamber of each insert for measurement of the initial concentration of the donor chamber. One milliliter of transfer buffer was added to the plate wells and the plate was incubated on an orbital shaker at 37 °C for 90 min in a CO2 incubator. The transport buffer in the lower chamber was collected to determine Se concentration 90 min after the incubation. Se concentrations were measured by an inductively coupled plasma mass spectrometer (ICP-MS, Agilent 7700cx, Agilent, Hachiouji, Japan). The Se compound solution in the chamber of each insert was removed and a 300 μL aliquot of 300 μM Lucifer Yellow (LY) solution was added to the upper chamber. Then, the concentration of LY that permeated the lower chamber was determined by a fluorescence photometer (excitation wavelength: 485 nm, emission wavelength: 538 nm). Monolayers producing 0.3%–2.0% LY flux were recognized as intact monolayers of differentiated Caco-2 cells. Monolayers with flux exceeding 2.0% were excluded from the experiment.

Caco-2 and HepG2 cells = test: Proliferative effect under standard culture conditions for Caco-2 and HepG2 cells; assay type: cell-based, human; conditions: data not shown
Method: as §2

[4] = test system: extracellular glutathione peroxidase (GPX3); test: Bioavailability in vivo: recovery of serum GPX3 in Se-deficient rats by LC-ICP-MS; conditions: oral 10 μg Se/rat once a day for 2 days, serum 24 h after administration
Method: (§3) Two major serum selenoproteins were detected by LC-ICP-MS (Figure 4a). The peak detected at the retention time of 11.0 min was assigned to extracellular glutathione peroxidase (GPX3), and the peak at the retention time of 13.5 min was assigned to selenoprotein P (SELENOP) according to our previous literature. The abbreviations of the selenoproteins (GPX3 and SELENOP) were adopted in accordance with the latest nomenclature. We used the recovery amounts of serum selenoproteins in Se-deficient rats as the index of Se bioavailability when a selenocompound was administered to an Se-deficient rat. […] Sera sampled from rats administered each bioselenocompound were analyzed for the recovery of Se in the form of selenoproteins by LC-ICP-MS, and their bioavailabilities, namely, the assimilation of Se into GPX3 and SELENOP, are summarized in Figure 4c,d, respectively. Coinciding with a previous study, SELENOP was more efficiently recovered than GPX3 in the Se-deficient rats 24 h after the repletion of the bioselenocompounds except for TMSe^+. There were no significant differences in the recovery of GPX3 among all the bioselenocompounds except for TMSe^+ (Figure 4c). As SELENOP was more efficiently recovered, the recovery of SELENOP by all the bioselenocompounds except TMSe^+ was more obvious than that of GPX3 (Figure 4d). […] Therefore, there were no significant differences in the bioavailability in vivo among all the bioselenocompounds except TMSe^+.
(§4) Specific pathogen free (SPF) male Wistar rats (4 weeks of age) were purchased from Japan SLC (Shizuoka, Japan) and were housed in a humidity-controlled room maintained at 25 ± 2 °C with a 12 h light-dark cycle. The rats were fed a commercial diet (MF, Oriental Yeast Co., Ltd., Tokyo, Japan) and tap water ad libitum. After a one-week acclimation period, diet and water were changed to a Se-deficient diet (Oriental Yeast) and Milli-Q water (18.3 MΩ·cm), respectively. The rat fed the Se-deficient diet and the Milli-Q water for 3 weeks was used as an Se-deficient rat. The rats continuously fed the commercial diet and tap water served as the positive control.
(§5) The Se-deficient rats were orally administered each Se compound in saline at a dose of 10 μg Se/rat once a day for 2 consecutive days. The saline-administered rats served as the negative control. All the rats were sacrificed 24 h after administration by exsanguination under anesthesia. Non-heparinized blood was collected and clotted blood was centrifuged at 1600× g for 10 min to obtain serum. A 20 μL aliquot of the serum was applied to an HPLC coupled with an ICP-MS to analyze the distribution of Se. […]

[5] = test system: selenoprotein P (SELENOP); test: Bioavailability in vivo: recovery of serum SELENOP in Se-deficient rats by LC-ICP-MS; conditions: oral 10 μg Se/rat once a day for 2 days, serum 24 h after administration
Method: as §3, §4, §5

[6] = design: method as in PMID 26243445; conditions: cited from earlier work
[7] = Caco-2 monolayer, 1 μg Se/mL, 90 min, mean ± SD for 3 wells

In the case of `N[C@@H](CS)C(=O)O` [Cys], the pKa [1] is listed as 8.3.
For `C[Se]C[C@H](N)C(=O)O` [MeSeCys, Se-Methylseleno-L-cysteine], the “dose from which cell viability was significantly increased (proliferation)” value (Caco-2 cells [2]; dose-dependent) was at least 0.8 μg Se/mL, the “effect on cell proliferation” value (HepG2 cells) was “stimulated the proliferation” and the “dose at which cytotoxicity / reduced cell viability was seen” value (HepG2 cells) was at least 40 μg Se/mL. For the same compound, the “effect on cell viability / proliferation” value (HepG2 cells) was “still induced the cell proliferation at low doses” and the “permeability in the presence of Met” value (Caco-2 cells [3]; Caco-2 monolayer) was “reduced”.
In the case of `CSCC[C@H](N)C(=O)O` [Met, L-methionine], the proliferative effects (Caco-2 and HepG2 cells) is reported as “no proliferative effects”.
For `N#C[Se-].[K+]` [SeCN^−, potassium selenocyanate], the “dose at which cytotoxicity / reduced cell viability was seen” value (HepG2 cells) was 80 μg Se/mL, the percentage permeation (Caco-2 cells [3]; [7]) was 3.8% ± 0.44% and the “recovery of serum GPX3 (assimilation of Se)” value [4] was “comparable to selenite”. For the same compound, the “recovery of serum SELENOP (assimilation of Se)” value [5] was “comparable to selenite” and the “toxicity relative to selenite” value [6] was “less toxic than selenite”.
In the case of `N[C@@H](C[Se][Se]C[C@H](N)C(=O)O)C(=O)O` [SeCys2, L-selenocystine], the “dose at or above which cell viability was significantly reduced” value (Caco-2 cells [2]) is reported as at least 0.8 μg Se/mL and the “dose from which toxicity was dose-dependent” value (HepG2 cells) is reported as at least 0.4 μg Se/mL.
In the case of `N[C@@H](C[SeH])C(=O)O` [SeCys, selenocysteine], the pKa [1] is listed as 5.2.
With `C[Se]CC[C@H](N)C(=O)O` [SeMet, seleno-L-methionine] the “effect on cell proliferation” value (HepG2 cells) was “stimulated the proliferation”, the “effect on cell viability / proliferation” value (HepG2 cells) was “marginal cytotoxicity rather than a proliferative effect” and the “permeability in the presence of Met” value (Caco-2 cells [3]; Caco-2 monolayer) was “reduced”.
In the case of `C[Se]C1OC(CO)C(O)C(O)C1NC(C)=O` (stereo not drawn) [SeSug1, Se-methylseleno-N-acetylgalactosamine], the “recovery of serum GPX3 (assimilation of Se)” value [4] is reported as “equivalent effect to selenite” and the “recovery of serum SELENOP (assimilation of Se)” value [5] is reported as “equivalent effect to selenite”.
For `C[Se+](C)C.[I-]` [TMSe^+, Trimethylselenonium iodide], the percentage permeation (Caco-2 cells [3]; Caco-2) was 3% ± 0.42%, the “recovery of serum GPX3 (assimilation of Se)” value [4] was “did not have any apparent effects” and the “recovery of serum SELENOP (assimilation of Se)” value [5] was “did not have any apparent effects”.
For `O=[Se]([O-])[O-].[Na+].[Na+]` [selenite, Sodium selenite], the “dose at or above which cell viability was significantly reduced” value (Caco-2 cells [2]) was at least 8.0 μg Se/mL, the “dose from which toxicity was dose-dependent” value (HepG2 cells) was at least 0.8 μg Se/mL and the percentage permeation (Caco-2 cells [3]; [7]) was 3.4% ± 0.066%. The “recovery of serum GPX3 (assimilation of Se)” value [4] was “recovery of both selenoproteins was observed” and the “recovery of serum SELENOP (assimilation of Se)” value [5] was “recovery of both selenoproteins was observed”.
For Lucifer Yellow [LY, reference compound], the percentage permeation (Caco-2 cells [3]; Caco-2) was 0.81% ± 0.36%.
With S-methylcysteine [MeCys] the proliferative effects (Caco-2 and HepG2 cells) was “no proliferative effects”.
